Assay results published in patent US7888510B2, “2-′4(phenylamino)-piperidin-1-yl!-n-phenyl-acetamine derivatives and related compounds as neuropeptide Y5 (NPY5) ligands for the treatment of obesity” (Laboratorios del Dr. Esteve S.A., priority 2003, dated 2011).
Where a name gives a salt, the structure may show the parent alone.

Tests used:
rat Y5 receptor = biological target: T1, rat Y5 receptor (Rattus norvegicus, UniProt Q63634); assay: Neuropeptide Y5 receptor binding ([125I]-PYY displacement, membranes of transfected C6 cells); details: membranes of C6 cells transfected with the rat Y5 receptor, radioligand [125I]-PYY 100 pM; for IC50: 25° C., 2 h; for inhibition at 1 µM: 10^−6 M
T1 construct: expressed in transfected cells; host or cells: C6 cells (membrane preparation)
T1 sequence (Q63634 1-445): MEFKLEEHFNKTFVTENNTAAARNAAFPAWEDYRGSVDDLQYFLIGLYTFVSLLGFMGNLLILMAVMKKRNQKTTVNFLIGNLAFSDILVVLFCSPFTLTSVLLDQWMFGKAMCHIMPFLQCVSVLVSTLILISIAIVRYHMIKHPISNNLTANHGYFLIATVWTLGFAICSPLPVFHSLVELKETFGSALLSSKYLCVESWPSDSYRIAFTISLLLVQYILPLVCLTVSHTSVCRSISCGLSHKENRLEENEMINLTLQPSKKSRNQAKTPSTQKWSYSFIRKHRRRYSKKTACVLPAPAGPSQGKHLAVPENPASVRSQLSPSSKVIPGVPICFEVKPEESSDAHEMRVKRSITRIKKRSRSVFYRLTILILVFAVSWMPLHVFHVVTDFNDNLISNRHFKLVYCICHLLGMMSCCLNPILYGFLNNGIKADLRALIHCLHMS
Protocol: Neuropeptide Y5 Receptor Binding Studies:
The methods used for membrane preparation and binding are similar to those described by Y. Hu, B. T. Bloomquist et al. in Y. Hu, B. T. Bloomquist et al., The Journal of Biological Chemistry, 1996, 271, 26315-26319 with modifications. Said literature description is herewith incorporated by reference and forms part of the disclosure. Cells C6 were transfected with the rat Y5 receptor. The cells were grown under standard culture conditions in 150 cm^2 dishes and they were harvested using a rubber scraper and 10 ml PBS. The cells from five dishes were collected and centrifuged 2.500 g for 5 min (4° C.). The pellet was washed by resuspending in 3 ml buffer (Tris-HCl 10 mM, pH 7.4), homogenized using a Potter S homogenizer, 10 strokes at 600 rpm and centrifuged 48.000 g for 20 min (4° C.). The pellet was resuspended in 8 ml membrane buffer (Tris-HCl 25 mM, NaCl 120 mM, KCl 5 mM, KH2PO4 1.2 mM, CaCl2 2.5 mM, MgSO4 1.2 mM, BSA 0.15 mg/ml, Bacitracine 0.5 mg/ml, pH 7.4) and rehomogenized using the Potter S, 10 strokes at 600 rpm. The protein concentration in the incubation was […]. The radioligand was [^125I]-PYY (100 pM) in a total incubation volume of 200 μl. Following incubation at 25° C. for 2 h, the reaction was stopped by addition of 5 ml ice-cold buffer (Tris-HCl 25 mM, NaCl 120 mM, KCl 5 mM, KH2PO4 1.2 mM, CaCl2 2.5 mM, MgSO4 1.2 mM, pH 7.4) and rapid filtration in a Harvester Brandell Cell using filters (Schleicher & Schuell GF 3362) pretreated for two hours with 0.5% polyethyleneimine. Filters were washed one time with 5 ml ice-cold buffer. The filters were placed into plastic scintilation vials and 5 ml scintilation cocktail Ecoscint H were added. The quantity of radioactivity present was determined in a Wallac Winspectral 1414 counter. Non specific binding was determined in the presence of 1 μM de pNPY. All binding assays were done in triplicate.

Row | Compound | melting point [°C] | IC50 (rat Y5 receptor) [µM] | inhibition at 1 µM (rat Y5 receptor) [%]
1 | COC(=O)c1ccccc1NC1CCN(CC(=O)Nc2ccc3c(c2)-c2ccccc2C3=O)CC1.Cl | 258 | – | –
2 | O=C(CN1CCC(Nc2ccccc2CO)CC1)Nc1ccc2c(c1)CCC2=O | 138 to 140 | – | –
3 | CCn1c2ccccc2c2cc(NC(=O)CN3CCC(Nc4c(C)cccc4CO)CC3)ccc21 [Example 1a, N-(9-Ethyl-9H-carbazol-3-yl)-2-[4-(2-hydroxymethyl-6-methyl-phenylamino)-piperidin-yl]acetamide dihydrochloride] | – | 0.05 | –
4 | Cc1ccc(NC2CCN(CC(=O)Nc3ccc4c(c3)-c3ccccc3C4=O)CC2)c(CO)c1 [Example 2a, 2-[4-(2-Hydroxymethyl-4-methyl-phenylamino)-piperidin-1-yl]-N-(9-oxo-9H-fluoren-3-yl)-acetamide] | 152 | 0.0809 | –
5 | Cc1cccc(CO)c1NC1CCN(CC(=O)Nc2ccc3c(c2)-c2ccccc2C3=O)CC1 [Example 3a, 2-[4-(2-Hydroxymethyl-6-methyl-phenylamino)-piperidin-1-yl]-N-(9-oxo-9H-fluoren-3-yl)-acetamide] | 113 | 0.0363 | –
6 | Cc1ccc(NC2CCN(CC(=O)Nc3ccc4c(c3)-c3ccccc3C4O)CC2)c(CO)c1 (stereo not drawn) [Example 4a, N-(9-Hydroxy-9H-fluoren-3-yl)-2-[4-(2-hydroxymethyl-4-methyl-phenylamino)-piperidin-1-yl]-acetamide] | 124 | – | –
7 | Cc1ccc(NC2CCN(CC(=O)Nc3cnc4ccccc4c3)CC2)c(CO)c1 [Example 5, 2-[4-(2-Hydroxymethyl-4-methyl-phenylamino)-piperidin-1-yl]-N-quinolin-3-yl-acetamide] | – | – | 86.2
8 | Cc1cccc(CO)c1NC1CCN(CC(=O)Nc2ccc3c(c2)-c2ccccc2C3O)CC1 (stereo not drawn) [Example 5a, N-(9-Hydroxy-9H-fluoren-3-yl)-2-[4-(2-hydroxymethyl-6-methyl-phenylamino)-piperidin-1-yl]-acetamide] | 133 | 0.0401 | –
9 | Cc1ccc(NC2CCN(CC(=O)Nc3ccc4ncccc4c3)CC2)c(CO)c1 [Example 7, 2-[4-(2-Hydroxymethyl-4-methyl-phenylamino)-piperidin-1-yl]-N-quinolin-6-yl-acetamide] | – | – | 82.3
10 | Cc1ccc(NC2CCN(CC(=O)Nc3ccccc3)CC2)c(CO)c1 [Example 7a, 2-[4-(2-Hydroxymethyl-4-methyl-phenylamino)-piperidin-1-yl]-N-phenyl-acetamide] | 128 | – | –
11 | Cc1cccc(CO)c1NC1CCN(CC(=O)Nc2cnc3ccccc3c2)CC1 [Example 9, 2-[4-(2-Hydroxymethyl-6-methyl-phenylamino)-piperidin-1-yl]-N-quinolin-3-yl-acetamide] | – | – | 80.4
12 | Cc1cccc(CO)c1NC1CCN(CC(=O)Nc2ccc3ncccc3c2)CC1 [Example 11, 2-[4-(2-Hydroxymethyl-6-methyl-phenylamino)-piperidin-1-yl]-N-quinolin-6-yl-acetamide] | – | – | 73.9
13 | O=C(CN1CCC(Nc2ccccc2CO)CC1)Nc1ccc(C(=O)c2ccccc2)cc1 [Example 13, N-(4-Benzoyl-phenyl)-2-[4-(2-hydroxymethyl-phenylamino)-piperidin-1-yl]-acetamide] | – | – | 81.5
14 | Cc1ccc(NC2CCN(CC(=O)Nc3ccc(C(=O)c4ccccc4)cc3)CC2)c(CO)c1 [Example 14, N-(4-Benzoyl-phenyl)-2-[4-(2-hydroxymethyl-4-methyl-phenylamino)-piperidin-1-yl]-acetamide] | – | – | 88.9
15 | Cc1cccc(CO)c1NC1CCN(CC(=O)Nc2ccc(C(=O)c3ccccc3)cc2)CC1 [Example 15, N-(4-Benzoyl-phenyl)-2-[4-(2-hydroxymethyl-6-methyl-phenylamino)-piperidin-1-yl]-acetamide] | – | – | 93.2
